# Patent US20130137573A1, “HERBICIDAL COMPOSITIONS COMPRISING, AND METHODS OF USE OF, HERBICIDALLY ACTIVE PYRANDIONES” (priority 2009, published 2013)
# Legend:
# [1] = system: Leptochloa chinensis (LEFCH); experiment: Biological Example 1 (Test 125): visual herbicidal damage to flooded LEFCH; format: in vivo; settings: 200 g/ha fenoxasulfone applied alone, 14 DAA
# Procedure: (§1) Rice seeds, variety IR-64 (an indica type of rice), were sown in seed trays. After 7 days the resulting plants were transplanted as 3 groups of 2 plants, into pots containing a standard sandy loam soil saturated with water replicating swampy conditions. These were grown on for a further 9 days in a glasshouse bay (30/20° C. day/night; 18/6 hours light/dark; 75% humidity). Leptochloa chinensis (LEFCH) and Echinochloa crus-galli (ECHCG) were sown as 2 separate groups of approx 10-20 seeds into pots 13 days prior to application of the test substances, in the same glasshouse conditions as the rice. Therefore, each pot of weeds contained a group of LEFCH and a separate group of ECHCG. All pots of rice and all pots of weeds were flooded to 2-3 cm water depth the day prior to application of the test substances. Growth stages at time of application were as follows: Rice: from 2 leaves on the main stem up to tillering; ECHCG: from 2 leaves on the main stem up to tillering; LEFCH: 2-3 leaves.
# Test solutions were prepared by mixing the appropriate aliquots of the test substances in deionised water to give the desired treatment concentration. Most of the test substances were used as formulated products. Specifically, compound A-13 was applied as the EC050 formulation disclosed in Formulation Example 1 herein (EC=emulsifiable concentrate). […]
# [2] = system: Echinochloa crus-galli (ECHCG); experiment: Biological Example 1 (Test 125): visual herbicidal damage to flooded ECHCG; format: in vivo; settings: 200 g/ha fenoxasulfone applied alone, 14 DAA
# Procedure: as §1
# Test solutions were prepared by mixing the appropriate aliquots of the test substances in deionised water to give the desired treatment concentration. Most of the test substances were used as formulated products. Specifically, compound A-13 was applied as the EC050 formulation disclosed in Formulation Example 1 herein (EC=emulsifiable concentrate). Reference compound A-4 was applied as the EC050 formulation disclosed in Reference Formulation Example 2 herein. Pyroxasulfone (a comparator co-herbicide) was applied as the SC050 formulation disclosed in Reference Formulation Example 6 herein (SC=Suspension concentrate). Imazosulfuron (a comparator co-herbicide) was applied as a GR0.25 formulation (GR=granule).
# The test substances which were pure active ingredient (e.g. propyrisulfuron & fenoxasulfone & compound A-16) (labelled as ‘Technical’ in the following results table), were prepared by dissolving in 10.56% Emulsogen EL™ (castor oil ethoxylate, CAS Registry number 61791-12-6), 42.22% N-methylpyrrolidone and 42.22% dipropylene glycol mono-ethyl ether to give a stock solution containing 5% of the test substance and 95% of (Emulsogen EL™, N-methylpyrrolidone and dipropylene glycol mono-ethyl ether).
# Application of the test substances was made by pipetting the required amount of the test solution or the test formulation gently into the flood water of the appropriate pot.
# The test plants were then grown on in the same glasshouse conditions, and watered twice daily keeping the flood water at a depth of 2-3 cm.
# A visual assessment of the % herbicidal damage was made 7 & 14 days after application […], and the results are presented herein as % visual herbicidal damage where 0=no damage to plants and 100=total kill.
compound,measurement,setting,value
"CCOc1cc(Cl)c(CS(=O)(=O)C2=NOC(C)(C)C2)cc1Cl [fenoxasulfone, reference compound]",LEFCH control,[1],70%
same,ECHCG control,[2],65%
